These results are taken from patent US11590116B2 (THERAVANCE BIOPHARMA R&D IP, LLC, priority 2019, dated 2023).

Experiment [1] addresses T1, recombinant human ALK5 (TGF-βR1) protein (Homo sapiens, UniProt P36897).
T1 construct: purchased Life Technologies PR9075A
T1 sequence (P36897 34-503): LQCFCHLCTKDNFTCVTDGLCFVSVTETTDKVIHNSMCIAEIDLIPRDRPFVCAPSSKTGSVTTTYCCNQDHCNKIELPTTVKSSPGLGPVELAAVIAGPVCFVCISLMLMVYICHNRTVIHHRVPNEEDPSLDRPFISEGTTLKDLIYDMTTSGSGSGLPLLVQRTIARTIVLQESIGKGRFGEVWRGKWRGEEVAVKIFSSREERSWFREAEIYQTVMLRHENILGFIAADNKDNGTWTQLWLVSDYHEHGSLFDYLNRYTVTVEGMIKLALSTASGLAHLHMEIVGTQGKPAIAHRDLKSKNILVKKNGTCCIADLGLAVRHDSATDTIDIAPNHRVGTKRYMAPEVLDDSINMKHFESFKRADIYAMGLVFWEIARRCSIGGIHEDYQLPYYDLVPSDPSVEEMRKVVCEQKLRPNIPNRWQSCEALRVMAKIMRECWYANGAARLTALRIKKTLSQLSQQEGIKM
Put plainly: Biochemical ALK5 (TGF-βR1) assay to measure pKi (LANCE Ultra ULight kinase assay). The conditions noted are these: apparent pKi from pIC50 by Cheng-Prusoff, read-out: ALK5 pKi (converted). In short, it runs like this: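 Compounds (10 μM to 25 pM) were preincubated 60 min at room temperature with enzyme, then reactions were started with ATP (125 μM stock, 5× final) and run 60 min at 37 °C. EDTA-containing Eu-anti-phospho-Topo IIα (Thr1342) antibody stopped the reaction; TR-FRET read at 665 nm. pIC50 from 4-parameter fit, converted to pKi via Cheng-Prusoff.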

The subject of experiment [2] is TGF-β-stimulated SMAD3 phosphorylation in BEAS-2B cells. Put plainly: Cellular ALK5 potency assay, inhibition of TGF-β stimulated pSMAD3 formation in BEAS-2B cells. In kind it is cell-based. The conditions noted are these: Homo sapiens; inhibition of TGF-β stimulated pSMAD3 formation, BEAS-2B cells; read-out: BEAS2B pIC50 (converted). In short, it runs like this: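 pSMAD3 was quantified by AlphaLISA in BEAS-2B lysates after 10 ng/mL TGF-β (final) for 30 min. Before stimulation, cells received compound for 1 h at 37° C in supplemented HBSS. Values are pIC50, relative to TGF-β-stimulated cells without compound.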

SMILES strings stand for the structures. Bounds are passed on as bounds.

Regarding `Cc1cccc(-c2n[nH]cc2-c2ccc3ncc(NC(=O)C(F)(F)F)cc3n2)n1` [Compound 610, 2,2,2-trifluoro-N-[6-[3-(6-methyl-2-pyridyl)-1H-pyrazol-4-yl]-1,5-naphthyridin-3-yl]acetamide], the Ki in experiment [1] is 0.0398 to 0.316 nM. For the same compound, the IC50 in experiment [2] was 25.1 to 158 nM.
For `Cc1cccc(-c2[nH]cnc2-c2ccc3ncc(-c4ncc(C(=O)O)s4)cc3c2)n1` [Compound 1017, 2-(6-(5-(6-methylpyridin-2-yl)-1H-imidazol-4-yl)quinolin-3-yl)thiazole-5-carboxylic acid] the same measures were 0.0398 to 0.316 nM and 1580 to 10000 nM.
Taken in the same sequence, the figures for `Cc1cccc(-c2[nH]ncc2-c2ccc3ncc(C(=O)OCCC4CCNCC4)cc3c2)n1` [Compound 1255, 2-(4-piperidyl)ethyl 6-[5-(6-methyl-2-pyridyl)-1H-pyrazol-4-yl]quinoline-3-carboxylate] were 0.0398 to 0.316 nM and 25.1 to 158 nM.
Taken in the same sequence, the figures for `Cc1cccc(-c2n[nH]cc2-c2ccc3ncc(N(C)CC(=O)N4CCOCC4)cc3n2)n1` [Compound 181, 2-[methyl-[6-[3-(6-methyl-2-pyridyl)-1H-pyrazol-4-yl]-1,5-naphthyridin-3-yl]amino]-1-morpholino-ethanone] were 0.398 to 3.16 nM and 25.1 to 158 nM.
With `CNC1CC2CCC(C1)N2c1cnc2ccc(-c3c[nH]nc3-c3cccc(C)n3)nc2c1` (stereo not shown) [Compound 248, N-methyl-8-[6-[3-(6-methyl-2-pyridyl)-1H-pyrazol-4-yl]-1,5-naphthyridin-3-yl]-8-azabicyclo[3.2.1]octan-3-amine], the Ki in experiment [1] is 3.98 to 31.6 nM. Moreover, the IC50 in experiment [2] was 200 to 1260 nM.
Taken in the same sequence, the figures for `CNC(=O)[C@@H]1CN(c2cnc3ccc(-c4nc[nH]c4-c4cccc(C)n4)cc3c2)CCN1` [Compound 384, (2S)-N-methyl-4-[6-[5-(6-methyl-2-pyridyl)-1H-imidazol-4-yl]-3-quinolyl]piperazine-2-carboxamide] were 0.0398 to 0.316 nM and 200 to 1260 nM.
For `CN[C@H]1CC[C@H](OC(=O)c2cnc3ccc(-c4nc[nH]c4-c4cccc(C)n4)cc3c2)CC1` [Compound 1129, [4-(methylamino)cyclohexyl] 6-[5-(6-methyl-2-pyridyl)-1H-imidazol-4-yl]quinoline-3-carboxylate] the same measures were 0.0398 to 0.316 nM and 25.1 to 158 nM.
For `Cc1nc(-c2n[nH]cc2-c2ccc3ncc(-c4cnn([C@@H]5CCCC[C@H]5N)c4)cc3n2)ccc1F` [Compound 490, (1R,2R)-2-(4-(6-(3-(5-fluoro-6-methylpyridin-2-yl)-1H-pyrazol-4-yl)-1,5-naphthyridin-3-yl)-1H-pyrazol-1-yl)cyclohexan-1-amine] the same measures were under 0.0316 nM and under 20 nM.
For the compound `Cc1cccc(-c2n[nH]cc2-c2ccc3ncc(N4CC5CNC5C4)cc3c2)n1` (stereo not shown) [Compound 535, 3-(3,6-diazabicyclo[3.2.0]heptan-3-yl)-6-[3-(6-methyl-2-pyridyl)-1H-pyrazol-4-yl]quinoline], the Ki in experiment [1] was 0.0398 to 0.316 nM. In experiment [2], the IC50 was 25.1 to 158 nM.
Taken in the same sequence, the figures for `Cc1cccc(-c2n[nH]cc2-c2ccc3nccc(-c4cnn(CCN5CCOCC5)c4)c3n2)n1` [Compound 833, 4-[2-[4-[6-[3-(6-methyl-2-pyridyl)-1H-pyrazol-4-yl]-1,5-naphthyridin-4-yl]pyrazol-1-yl]ethyl]morpholine] were 0.0398 to 0.316 nM and 25.1 to 158 nM.
Taken in the same sequence, the figures for `Cc1cccc(-c2n[nH]cc2-c2ccc3ncc(C#N)cc3n2)n1` [Compound 236, 6-[3-(6-methyl-2-pyridyl)-1H-pyrazol-4-yl]-1,5-naphthyridine-3-carbonitrile] were 0.398 to 3.16 nM and 25.1 to 158 nM.
Taken in the same sequence, the figures for `Cc1cccc(-c2[nH]cnc2-c2ccc3ncc(-c4ccc(C(=O)O)s4)cc3c2)n1` [Compound 1005, 5-(6-(5-(6-methylpyridin-2-yl)-1H-imidazol-4-yl)quinolin-3-yl)thiophene-2-carboxylic acid] were 0.0398 to 0.316 nM and 1580 to 10000 nM.
Regarding `Cc1cccc(-c2[nH]cnc2-c2ccc3ncc(-c4ccc(C(=O)OC[C@H]5CCCNC5)cn4)cc3c2)n1` [Compound 1224, [(3S)-3-piperidyl]methyl 6-[6-[5-(6-methyl-2-pyridyl)-1H-imidazol-4-yl]-3-quinolyl]pyridine-3-carboxylate], the Ki in experiment [1] is 0.0398 to 0.316 nM. Besides, the IC50 in experiment [2] is 25.1 to 158 nM.
Regarding `Cc1cccc(-c2[nH]cnc2-c2ccc3ncc(-c4ccc5c(c4)CC[C@@H]5N)cc3c2)n1` [Compound 1056, (1S)-5-[6-[5-(6-methyl-2-pyridyl)-1H-imidazol-4-yl]-3-quinolyl]indan-1-amine], in experiment [1], the Ki was 0.0398 to 0.316 nM. In addition, in experiment [2], the IC50 was 25.1 to 158 nM.
On to `Cc1cccc(-c2n[nH]cc2-c2ccc3ncc(-c4ccncc4)cc3n2)n1` [Compound 565, 2-[3-(6-methyl-2-pyridyl)-1H-pyrazol-4-yl]-7-(4-pyridyl)-1,5-naphthyridine], for which the Ki in experiment [1] was under 0.0316 nM. Moreover, the IC50 in experiment [2] is under 20 nM.
Taken in the same sequence, the figures for `Cc1cccc(-c2[nH]ncc2-c2ccc3nccc(C(=O)O[C@H]4C[C@@H](N)C4)c3c2)n1` [Compound 1047, (3-aminocyclobutyl) 6-[5-(6-methyl-2-pyridyl)-1H-pyrazol-4-yl]quinoline-4-carboxylate] were 0.398 to 3.16 nM and 25.1 to 158 nM.
Taken in the same sequence, the figures for `Cc1cccc(-c2n[nH]cc2-c2ccc3ncc(N4CCN(CCN)CC4)cc3n2)n1` [Compound 281, 2-[4-[6-[3-(6-methyl-2-pyridyl)-1H-pyrazol-4-yl]-1,5-naphthyridin-3-yl]piperazin-1-yl]ethanamine] were under 0.0316 nM and 200 to 1260 nM.
Taken in the same sequence, the figures for `Cc1cccc(-c2[nH]cnc2-c2ccc3nccc(C(=O)OCC4CCNCC4)c3c2)n1` [Compound 1078, 4-piperidylmethyl 6-[5-(6-methyl-2-pyridyl)-1H-imidazol-4-yl]quinoline-4-carboxylate] were 0.398 to 3.16 nM and 25.1 to 158 nM.
With `Cc1cccc(-c2[nH]cnc2-c2ccc3nccc(C(=O)O)c3c2)n1` [Compound 1097, 6-[5-(6-methyl-2-pyridyl)-1H-imidazol-4-yl]quinoline-4-carboxylic acid], the Ki in experiment [1] was 0.398 to 3.16 nM. The IC50 in experiment [2] was 200 to 1260 nM.
For `Cc1cccc(-c2[nH]cnc2-c2ccc3ncc(-c4ncc(C5=CCNCC5)s4)cc3c2)n1` [Compound 1084, 2-[6-[5-(6-methyl-2-pyridyl)-1H-imidazol-4-yl]-3-quinolyl]-5-(1,2,3,6-tetrahydropyridin-4-yl)thiazole] the same measures were 0.0398 to 0.316 nM and under 20 nM.
Taken in the same sequence, the figures for `Cc1cccc(-c2[nH]cnc2-c2ccc3ncc(N4CCC(C(=O)O)CC4)cc3c2)n1` [Compound 213, 1-(6-(5-(6-methylpyridin-2-yl)-1H-imidazol-4-yl)quinolin-3-yl)piperidine-4-carboxylic acid] were 0.0398 to 0.316 nM and 200 to 1260 nM.
As for `Cc1cccc(-c2[nH]cnc2-c2ccc3ncc(-c4csc(C(=O)OC[C@@H]5CCC[C@@H](N)C5)c4)cc3c2)n1` (racemic) [Compound 1215, [rac-(1R,3R)-3-aminocyclohexyl]methyl 4-[6-[5-(6-methyl-2-pyridyl)-1H-imidazol-4-yl]-3-quinolyl]thiophene-2-carboxylate], in experiment [1], the Ki was under 0.0316 nM. The IC50 in experiment [2] is 25.1 to 158 nM.
For `COC(=O)CNc1cnc2ccc(-c3nc[nH]c3-c3cccc(C)n3)cc2c1` [Compound 1229, methyl 2-[[6-[5-(6-methyl-2-pyridyl)-1H-imidazol-4-yl]-3-quinolyl]amino]acetate] the same measures were 0.0398 to 0.316 nM and 25.1 to 158 nM.
`Cc1cccc(-c2[nH]cnc2-c2ccc3ncc(-c4ncc(C(=O)O[C@H]5CCNC5)cn4)cc3c2)n1` [Compound 1158, [(3S)-pyrrolidin-3-yl] 2-[6-[5-(6-methyl-2-pyridyl)-1H-imidazol-4-yl]-3-quinolyl]pyrimidine-5-carboxylate]: the Ki in experiment [1] is 0.0398 to 0.316 nM. Also, the IC50 in experiment [2] was 25.1 to 158 nM.
For `Cc1cccc(-c2[nH]cnc2-c2ccc3ncc(C4=CC[C@H](NC(=O)[C@@H]5CCC(=O)N5)CC4)cc3c2)n1` [Compound 764, (2S)-N-[(1R)-4-[6-[5-(6-methyl-2-pyridyl)-1H-imidazol-4-yl]-3-quinolyl]cyclohex-3-en-1-yl]-5-oxo-pyrrolidine-2-carboxamide] the same measures were 0.0398 to 0.316 nM and 200 to 1260 nM.
Taken in the same sequence, the figures for `Cc1cccc(-c2[nH]ncc2-c2ccc3nccc(C(=O)OC4CNC4)c3c2)n1` [Compound 1237, azetidin-3-yl 6-[5-(6-methyl-2-pyridyl)-1H-pyrazol-4-yl]quinoline-4-carboxylate] were 0.0398 to 0.316 nM and 25.1 to 158 nM.
